# *1 amine or outer side, *2 acyl side, *3 side chain or, on linkers, in order; H or OH if unused. Where a SMILES comes first, the peptide text is derived from it. [ ]: non-standard residue; d: D form. Trp(4-Cl)(βS-Me) = C[C@@H](c1c[nH]c2cccc(Cl)c12)[C@H](N)C(=O)O; Bip(4'-COOH) = N[C@@H](Cc1ccc(-c2ccc(C(=O)O)cc2)cc1)C(=O)O; Phe(4-COOH) = N[C@@H](Cc1ccc(C(=O)O)cc1)C(=O)O; Pro(4R-NH2) = N[C@H]1CN[C@H](C(=O)O)C1; X7 = O=C([C@H](CCN1CCOCC1)N[*:1])[*:2]; AEF = NCCOc1ccc(C[C@H](N)C(=O)O)cc1; hTyr = N[C@@H](CCc1ccc(O)cc1)C(=O)O; hPhe = N[C@@H](CCc1ccccc1)C(=O)O; Dap(Me2) = CN(C)C[C@H](N)C(=O)O; dDab = NCC[C@@H](N)C(=O)O; hSer = N[C@@H](CCO)C(=O)O; dNMeA = CN[C@H](C)C(=O)O; Dab = NCC[C@H](N)C(=O)O; Dap = NC[C@H](N)C(=O)O
# Target: T1, Recombinant human IL-1β (Homo sapiens, UniProt P01584)
# T1 construct: purchased BioLegend 579404
# T1 sequence (P01584 117-269): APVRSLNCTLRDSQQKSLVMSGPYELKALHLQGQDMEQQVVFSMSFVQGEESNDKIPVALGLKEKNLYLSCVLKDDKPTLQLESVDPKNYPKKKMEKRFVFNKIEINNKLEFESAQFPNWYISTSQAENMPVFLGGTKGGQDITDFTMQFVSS
# Test: IL-6 assay in MRC5 cells: inhibition of IL-1β induced IL-6 secretion (AlphaLISA)
# Format: cell-based
# Settings: inhibition of IL-1β induced IL-6 secretion in MRC5 cells; read-out: MRC5 IC50
# Summary of the method: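 IL-1β at 2×EC80 in seeding medium (EMEM, 0.025% BSA) preincubated 1 h at ambient temperature with compound, then 3000 MRC5 cells/well added and incubated overnight at 37 °C, 5% CO2. IL-6 in conditioned medium quantified by AlphaLISA; IC50 from 4-parameter logistic fit.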
row,SMILES,IC50 [pM]
1,CC(=O)NCCOc1ccc(C[C@@H]2NC(=O)[C@H](CCc3ccc(O)cc3)NC(=O)[C@@H](CCN)NC(=O)[C@H](CO)NC(=O)[C@H](CCCCN)NC(=O)[C@H](Cc3ccc(-c4ccc(C(=O)O)cc4)cc3)NC(=O)CNC(=O)[C@@H](C)N(C)C(=O)[C@H](CC(=O)O)NC(=O)[C@H]([C@@H](C)c3c[nH]c4cccc(Cl)c34)NC(=O)[C@@H]3C[C@@H](N)CN3C(=O)CNC(=O)[C@H](Cc3ccc(C(=O)O)cc3)NC(=O)[C@H](Cc3c[nH]c4ccccc34)NC2=O)cc1 [Example 139] (cyclo([AEF](Ac)W[Phe(4-COOH)]G[Pro(4R-NH2)][Trp(4-Cl)(βS-Me)]D[dNMeA]G[Bip(4'-COOH)]KS[dDab][hTyr])),132
2,CC(=O)NCCOc1ccc(C[C@@H]2NC(=O)CNC(=O)[C@@H](C)NC(=O)[C@H](CCN3CCOCC3)NC(=O)[C@H](Cc3c[nH]c4ccccc34)NC(=O)[C@H](Cc3ccc(-c4ccc(C(=O)O)cc4)cc3)NC(=O)CNC(=O)[C@@H](C)N(C)C(=O)[C@H](CC(=O)O)NC(=O)[C@H]([C@@H](C)c3c[nH]c4cccc(Cl)c34)NC(=O)[C@@H]3C[C@@H](N)CN3C(=O)CNC(=O)[C@H](Cc3ccc(C(=O)O)cc3)NC(=O)[C@H](Cc3c[nH]c4ccccc34)NC2=O)cc1 [Example 140] (cyclo([AEF](Ac)W[Phe(4-COOH)]G[Pro(4R-NH2)][Trp(4-Cl)(βS-Me)]D[dNMeA]G[Bip(4'-COOH)]W[X7][dA]G)),515
3,CC(=O)NCCOc1ccc(C[C@@H]2NC(=O)[C@H](CCc3ccc(O)cc3)NC(=O)[C@@H](C)NC(=O)[C@H](CCN3CCOCC3)NC(=O)[C@H](Cc3c[nH]c4ccccc34)NC(=O)[C@H](Cc3ccc(-c4ccc(C(=O)O)cc4)cc3)NC(=O)CNC(=O)[C@@H](C)N(C)C(=O)[C@H](CC(=O)O)NC(=O)[C@H]([C@@H](C)c3c[nH]c4cccc(Cl)c34)NC(=O)[C@@H]3C[C@@H](N)CN3C(=O)CNC(=O)[C@H](Cc3ccc(C(=O)O)cc3)NC(=O)[C@H](Cc3c[nH]c4ccccc34)NC2=O)cc1 [Example 141] (cyclo([AEF](Ac)W[Phe(4-COOH)]G[Pro(4R-NH2)][Trp(4-Cl)(βS-Me)]D[dNMeA]G[Bip(4'-COOH)]W[X7][dA][hTyr])),177
4,CC(=O)NCCOc1ccc(C[C@@H]2NC(=O)[C@H](CCc3ccccc3)NC(=O)[C@@H](C)NC(=O)[C@H](CCN)NC(=O)[C@H](Cc3c[nH]c4ccccc34)NC(=O)[C@H](Cc3ccc(-c4ccc(C(=O)O)cc4)cc3)NC(=O)CNC(=O)[C@@H](C)N(C)C(=O)[C@H](CC(=O)O)NC(=O)[C@H]([C@@H](C)c3c[nH]c4cccc(Cl)c34)NC(=O)[C@@H]3C[C@@H](N)CN3C(=O)CNC(=O)[C@H](Cc3ccc(C(=O)O)cc3)NC(=O)[C@H](Cc3c[nH]c4ccccc34)NC2=O)cc1 [Example 142] (cyclo([AEF](Ac)W[Phe(4-COOH)]G[Pro(4R-NH2)][Trp(4-Cl)(βS-Me)]D[dNMeA]G[Bip(4'-COOH)]W[Dab][dA][hPhe])),159
5,CC(=O)NCCOc1ccc(C[C@@H]2NC(=O)[C@H](CCc3ccc(O)cc3)NC(=O)[C@@H](C)NC(=O)[C@H](CCN)NC(=O)[C@H](Cc3c[nH]c4ccccc34)NC(=O)[C@H](Cc3ccc(-c4ccc(C(=O)O)cc4)cc3)NC(=O)CNC(=O)[C@@H](C)N(C)C(=O)[C@H](CC(=O)O)NC(=O)[C@H]([C@@H](C)c3c[nH]c4cccc(Cl)c34)NC(=O)[C@@H]3C[C@@H](N)CN3C(=O)CNC(=O)[C@H](Cc3ccc(C(=O)O)cc3)NC(=O)[C@H](Cc3c[nH]c4ccccc34)NC2=O)cc1 [Example 143] (cyclo([AEF](Ac)W[Phe(4-COOH)]G[Pro(4R-NH2)][Trp(4-Cl)(βS-Me)]D[dNMeA]G[Bip(4'-COOH)]W[Dab][dA][hTyr])),230
6,CC(=O)NCCOc1ccc(C[C@@H]2NC(=O)[C@H](CCc3ccccc3)NC(=O)[C@@H](C)NC(=O)[C@H](CN)NC(=O)[C@H](Cc3c[nH]c4ccccc34)NC(=O)[C@H](Cc3ccc(-c4ccc(C(=O)O)cc4)cc3)NC(=O)CNC(=O)[C@@H](C)N(C)C(=O)[C@H](CC(=O)O)NC(=O)[C@H]([C@@H](C)c3c[nH]c4cccc(Cl)c34)NC(=O)[C@@H]3C[C@@H](N)CN3C(=O)CNC(=O)[C@H](Cc3ccc(C(=O)O)cc3)NC(=O)[C@H](Cc3c[nH]c4ccccc34)NC2=O)cc1 [Example 144] (cyclo([AEF](Ac)W[Phe(4-COOH)]G[Pro(4R-NH2)][Trp(4-Cl)(βS-Me)]D[dNMeA]G[Bip(4'-COOH)]W[Dap][dA][hPhe])),74.9
7,CC(=O)NCCOc1ccc(C[C@@H]2NC(=O)[C@H](CCc3ccc(O)cc3)NC(=O)[C@@H](C)NC(=O)[C@H](CN)NC(=O)[C@H](Cc3c[nH]c4ccccc34)NC(=O)[C@H](Cc3ccc(-c4ccc(C(=O)O)cc4)cc3)NC(=O)CNC(=O)[C@@H](C)N(C)C(=O)[C@H](CC(=O)O)NC(=O)[C@H]([C@@H](C)c3c[nH]c4cccc(Cl)c34)NC(=O)[C@@H]3C[C@@H](N)CN3C(=O)CNC(=O)[C@H](Cc3ccc(C(=O)O)cc3)NC(=O)[C@H](Cc3c[nH]c4ccccc34)NC2=O)cc1 [Example 145] (cyclo([AEF](Ac)W[Phe(4-COOH)]G[Pro(4R-NH2)][Trp(4-Cl)(βS-Me)]D[dNMeA]G[Bip(4'-COOH)]W[Dap][dA][hTyr])),74.8
8,CC(=O)NCCOc1ccc(C[C@@H]2NC(=O)[C@H](CCc3ccc(O)cc3)NC(=O)[C@@H](C)NC(=O)[C@H](CN(C)C)NC(=O)[C@H](Cc3c[nH]c4ccccc34)NC(=O)[C@H](Cc3ccc(-c4ccc(C(=O)O)cc4)cc3)NC(=O)CNC(=O)[C@@H](C)N(C)C(=O)[C@H](CC(=O)O)NC(=O)[C@H]([C@@H](C)c3c[nH]c4cccc(Cl)c34)NC(=O)[C@@H]3C[C@@H](N)CN3C(=O)CNC(=O)[C@H](Cc3ccc(C(=O)O)cc3)NC(=O)[C@H](Cc3c[nH]c4ccccc34)NC2=O)cc1 [Example 146] (cyclo([AEF](Ac)W[Phe(4-COOH)]G[Pro(4R-NH2)][Trp(4-Cl)(βS-Me)]D[dNMeA]G[Bip(4'-COOH)]W[Dap(Me2)][dA][hTyr])),114
9,COCC[C@@H]1NC(=O)[C@H](Cc2c[nH]c3ccccc23)NC(=O)[C@H](Cc2ccc(-c3ccc(C(=O)O)cc3)cc2)NC(=O)CNC(=O)[C@@H](C)N(C)C(=O)[C@H](CC(=O)O)NC(=O)[C@H]([C@@H](C)c2c[nH]c3cccc(Cl)c23)NC(=O)[C@@H]2C[C@@H](N)CN2C(=O)CNC(=O)[C@H](Cc2ccc(C(=O)O)cc2)NC(=O)[C@H](Cc2c[nH]c3ccccc23)NC(=O)[C@H](Cc2ccc(OCCNC(C)=O)cc2)NC(=O)[C@H](CCc2ccc(O)cc2)NC(=O)[C@@H](C)NC1=O [Example 147] (cyclo([AEF](Ac)W[Phe(4-COOH)]G[Pro(4R-NH2)][Trp(4-Cl)(βS-Me)]D[dNMeA]G[Bip(4'-COOH)]W[hSer](Me)[dA][hTyr])),92.6
10,CC(=O)NCCOc1ccc(C[C@@H]2NC(=O)[C@H](CCc3ccc(O)cc3)NC(=O)[C@@H](C)NC(=O)[C@H](CC(C)C)NC(=O)[C@H](Cc3c[nH]c4ccccc34)NC(=O)[C@H](Cc3ccc(-c4ccc(C(=O)O)cc4)cc3)NC(=O)CNC(=O)[C@@H](C)N(C)C(=O)[C@H](CC(=O)O)NC(=O)[C@H]([C@@H](C)c3c[nH]c4cccc(Cl)c34)NC(=O)[C@@H]3C[C@@H](N)CN3C(=O)CNC(=O)[C@H](Cc3ccc(C(=O)O)cc3)NC(=O)[C@H](Cc3c[nH]c4ccccc34)NC2=O)cc1 [Example 148] (cyclo([AEF](Ac)W[Phe(4-COOH)]G[Pro(4R-NH2)][Trp(4-Cl)(βS-Me)]D[dNMeA]G[Bip(4'-COOH)]WL[dA][hTyr])),48.3
